Legend:
[1] = tested on: myeloperoxidase (MPO); assay: LPS-induced sepsis model, serum MPO levels; format: in vivo, Sprague Dawley rats; conditions: for MPO (U/L): rat serum, 24 h after LPS 1 mg/kg i.p., 3b, 4a 10 mg/kg/day, indomethacin 5 mg/kg by gastric intubation for six days, mean ± SD, n = 8; for change of MPO activity compared to the LPS group: in words, LPS-induced sepsis, rats
Protocol: (§1) Male albino Sprague Dawley rats (~250–300 g) were procured from the Medical and Surgical Experimental Animals Application and Research Center of Eskisehir Osmangazi University (ESOGU). In the animal house, the rats were housed in stainless steel cages under standard atmospheric conditions at 22 ± 1 °C and exposed to 12 h/12 h light/dark cycle. Food and water were given ad libitum. All experiments and protocols reported in this work were approved by ESOGU Animal Experiments Local Ethics Committee (10 December 2018/700).
(§2) Compounds 3b, 4a, and indomethacin (Sigma-Aldrich, St. Louis, MO, USA) were dissolved in 5% dimethyl sulfoxide (DMSO) and then diluted. The final DMSO concentration in the solution was 0.5% (v/v). The agents were administered by gastric intubation.
(§3) Rats were randomly divided into five groups (n = 8) as control group, LPS group, test groups (3b and 4a), and reference group. 0.5% DMSO was used as control solution for LPS group. Indomethacin (5 mg/kg) was used as a reference agent. Control group (Group I) was fed with basal rat chow throughout the experimental period. LPS group (Group II) was fed with basal rat chow for six days (only 0.5% DMSO was administered by gastric intubation) and LPS was injected intraperitoneally in 0.9% sodium chloride solution only once on the 7th day. Groups III, IV, and V were fed with basal rat chow and compound 3b (10 mg/kg/day), compound 4a (10 mg/kg/day), and indomethacin were administered, respectively, by gastric intubation for six days. Then, LPS was injected intraperitoneally in 0.9% sodium chloride solution only once on the 7th day for three groups as well. After 24 h of LPS injection, all rats were sacrificed by ketamine (80 mg/kg) ve xylazine (10 mg/kg) anesthesia via intraperitoneal route. Blood samples were collected via cardiac puncture in tubes containing gel for obtaining serum.
Suzuki’s assay was performed with slight modifications. The rate of MPO-catalyzed oxidation of 3,3′,5,5′-tetramethylbenzidine (TMB) was followed by recording the absorbance increase at 655 nm for 5 min. Taking into account the linear phase of the reaction, the absorbance change was measured per minute. The enzyme activity was expressed as the amount of the enzyme producing one absorbance change per minute under assay conditions.

[2] = tested on: nitric oxide (NO); assay: LPS-induced sepsis model, serum NO levels; format: in vivo, Sprague Dawley rats; conditions: rat serum, 24 h after LPS; 3b, 4a 10 mg/kg/day, indomethacin 5 mg/kg by gastric intubation six days; n = 8
Protocol: as §1, §2, §3
Nitrate and nitrite, which represent the best index of the entire NO production, are the stable end products of NO in vivo. Nitrate in serum was assayed by a slight modification of the Cd-reduction method as reported by Cortas and Wakid.

[3] = LPS-induced sepsis model, serum ALT and AST levels; format: in vivo, Sprague Dawley rats; conditions: rat serum, 24 h after LPS; 3b, 4a 10 mg/kg/day, indomethacin 5 mg/kg by gastric intubation six days; mean ± SD, n = 8
Protocol: as §1, §2, §3
Serum ALT and AST levels were determined using enzyme-based Roche Diagnostics kit in Roche Modular Systems analyzer by photometric assay based on the manufacturer’s instructions. The other serum samples were stored at −80 °C (Thermo Electron, Waltham, MA, USA) for subsequent analyses of MPO and NO levels.

[4] = target: T1, COX-1 (Ovis aries, UniProt P05979); assay: COX (ovine) colorimetric inhibitor screening assay, COX-1; format: biochemical; conditions: for IC50: ovine COX-1, colorimetric, triplicate, mean ± SD; for SI (IC50 for COX-1/IC50 for COX-2): selectivity index
T1 construct: purchased Cayman
T1 sequence (P05979 25-600): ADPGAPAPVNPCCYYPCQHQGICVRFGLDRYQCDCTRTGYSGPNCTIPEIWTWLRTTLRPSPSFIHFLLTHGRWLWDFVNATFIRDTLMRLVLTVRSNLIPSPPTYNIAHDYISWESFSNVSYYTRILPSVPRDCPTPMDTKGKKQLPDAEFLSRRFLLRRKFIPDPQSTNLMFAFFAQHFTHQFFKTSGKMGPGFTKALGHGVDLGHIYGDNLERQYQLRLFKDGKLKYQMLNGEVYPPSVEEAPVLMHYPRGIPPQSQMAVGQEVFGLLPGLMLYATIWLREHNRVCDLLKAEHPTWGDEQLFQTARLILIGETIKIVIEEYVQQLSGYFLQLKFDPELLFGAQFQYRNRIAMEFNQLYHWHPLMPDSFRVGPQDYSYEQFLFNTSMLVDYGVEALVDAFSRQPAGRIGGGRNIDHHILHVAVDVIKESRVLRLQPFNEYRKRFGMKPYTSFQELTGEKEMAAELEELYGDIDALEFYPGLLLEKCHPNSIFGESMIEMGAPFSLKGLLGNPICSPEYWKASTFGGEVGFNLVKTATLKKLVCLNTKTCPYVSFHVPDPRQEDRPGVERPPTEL
Protocol: (§4) COX (ovine) Colorimetric Inhibitor Screening Assay (Cayman, Ann Arbor, MI, USA) was conducted to detect the peroxidase component of COX-1 and COX-2 according to the manufacturer’s instructions. The assay was performed in triplicate. Half maximal inhibitory concentration (IC50) data (µM) were expressed as mean ± SD.

[5] = target: T2, COX-2 (Ovis aries, UniProt P79208); assay: COX (ovine) colorimetric inhibitor screening assay, COX-2; format: biochemical; conditions: ovine COX-2, colorimetric, triplicate, mean ± SD
T2 construct: purchased Cayman
T2 sequence (P79208 17-603): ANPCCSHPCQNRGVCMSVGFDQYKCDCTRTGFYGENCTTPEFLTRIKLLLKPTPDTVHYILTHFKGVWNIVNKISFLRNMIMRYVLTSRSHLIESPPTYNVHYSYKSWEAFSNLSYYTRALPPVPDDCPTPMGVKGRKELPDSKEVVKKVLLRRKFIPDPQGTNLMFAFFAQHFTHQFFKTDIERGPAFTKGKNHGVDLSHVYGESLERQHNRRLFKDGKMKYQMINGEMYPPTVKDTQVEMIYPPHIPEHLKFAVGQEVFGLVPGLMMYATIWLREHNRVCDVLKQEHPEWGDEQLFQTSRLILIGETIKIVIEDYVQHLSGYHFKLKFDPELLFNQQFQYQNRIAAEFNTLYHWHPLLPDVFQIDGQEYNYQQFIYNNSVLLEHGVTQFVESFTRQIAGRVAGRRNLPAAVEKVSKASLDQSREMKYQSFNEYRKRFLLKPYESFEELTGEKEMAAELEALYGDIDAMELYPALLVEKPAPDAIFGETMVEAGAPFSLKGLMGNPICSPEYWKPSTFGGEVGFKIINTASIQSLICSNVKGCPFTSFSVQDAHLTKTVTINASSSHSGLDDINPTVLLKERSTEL
Protocol: as §4

[6] = tested on: L929 mouse fibroblast (normal) cells; assay: MTT cytotoxicity assay, L929 normal cells; format: cell-based; conditions: for IC50: MTT, L929 mouse fibroblast cells, mean ± SD; for cytotoxicity against L929 cells at effective concentrations: in words, at concentrations effective for COX-1 inhibition
Protocol: (§5) A549 human lung adenocarcinoma and L929 mouse fibroblast cell lines were obtained from American Type Culture Collection (ATCC) (Manassas, VA, USA). Both cell lines were cultured, and drug treatments were carried out as previously reported.
(§6) MTT assay was conducted as previously explained in the literature with small modifications. Cisplatin was used as a positive control. The assay was performed in triplicate. IC50 data (µM) were expressed as mean ± SD.

[7] = tested on: A549 human lung adenocarcinoma cells; assay: MTT cytotoxicity assay, A549 cells; format: cell-based; conditions: mean ± SD
Protocol: as §5, §6

[8] = tested on: Akt; assay: Akt Colorimetric In-Cell ELISA in A549 cells; format: cell-based, human; conditions: 24 h, mean ± SD, read-out: Akt inhibition IC50 in A549 cells
Protocol: The assay was performed in triplicate. IC50 data (µM) were expressed as mean ± SD.

[9] = tested on: A549 cells; assay: Annexin V-FITC/PI flow cytometry-based apoptosis detection; conditions: A549, 24 h; for percentage of A549 cells undergoing apoptosis (early and late): sum of early and late
[10] = tested on: COX-1; conditions: cited from earlier work
[11] = tested on: COX-2; conditions: cited from earlier work

SMILES: COc1ccc2c(c1)c(CC(=O)O)c(C)n2C(=O)c1ccc(Cl)cc1 [Indomethacin, reference compound]
- MPO (U/L) [1]: 1.06 ± 0.73 U/L
- NO level, 25% Percentile [2]: 0.667 µmol/L
- NO level, 75% Percentile [2]: 3.123 µmol/L
- NO level, Median [2]: 1.281 µmol/L
- ALT (U/L) [3]: 44.00 ± 14.64 U/L
- AST (U/L) [3]: 123.50 ± 32.14 U/L

SMILES: O=C(Cc1c[nH]c2ccccc12)NNC(=S)Nc1ccc(Br)cc1 [Compound 4a, 4-(4-Bromophenyl)-1-[2-(1H-indol-3-yl)acetyl]thiosemicarbazide]
- IC50 [4]: 10 ± 0.13 µM
- SI (IC50 for COX-1/IC50 for COX-2) [4]: 0.13
- IC50 [5]: 76.5 ± 6.36 µM
- IC50 [6]: 84 ± 19.7 µM
- cytotoxicity against L929 cells at effective concentrations [6]: did not show cytotoxicity
- IC50 ([7]; Homo sapiens): 179 ± 77.6 µM
- IC50 [8]: 45.3 ± 6.51 µM
- change of MPO activity compared to the LPS group [1]: significantly decreased
- MPO (U/L) [1]: 0.84 ± 0.26 U/L
- NO level, 25% Percentile [2]: 1.369 µmol/L
- NO level, 75% Percentile [2]: 4.0 µmol/L
- NO level, Median [2]: 2.509 µmol/L
- ALT (U/L) [3]: 48.29 ± 26.88 U/L
- AST (U/L) [3]: 132.30 ± 37.06 U/L
- melting point: 187 to 189 °C
- Early Apoptosis (%) ([9]; compound at IC50/2): 7.07%
- Late Apoptosis (%) ([9]; compound at IC50/2): 6.62%
- Necrosis (%) ([9]; compound at IC50/2): 0.60%
- Early Apoptosis (%) ([9]; compound at IC50/4): 7.34%
- Late Apoptosis (%) ([9]; compound at IC50/4): 5.19%
- Necrosis (%) ([9]; compound at IC50/4): 0.37%

SMILES: O=C(Cc1c[nH]c2ccccc12)NN=Cc1ccc(N2CCOCC2)cc1 [Compound 3b, 2-(1H-Indol-3-yl)-N′-(4-morpholinobenzylidene)acetohydrazide]
- IC50 [4]: 8.9 ± 0.14 µM
- SI (IC50 for COX-1/IC50 for COX-2) [4]: 0.13
- IC50 [5]: 71 ± 1.41 µM
- IC50 [6]: 177 ± 5.77 µM
- cytotoxicity against L929 cells at effective concentrations [6]: did not show cytotoxicity
- IC50 ([7]; Homo sapiens): 89.7 ± 10.8 µM
- IC50 [8]: 32.5 ± 4.95 µM
- change of MPO activity compared to the LPS group [1]: slightly decreased
- MPO (U/L) [1]: 1.50 ± 0.81 U/L
- NO level, 25% Percentile [2]: 0.316 µmol/L
- NO level, 75% Percentile [2]: 2.772 µmol/L
- NO level, Median [2]: 0.667 µmol/L
- ALT (U/L) [3]: 50.25 ± 21.86 U/L
- AST (U/L) [3]: 114.90 ± 22.04 U/L
- melting point: 306 to 307 °C
- Early Apoptosis (%) ([9]; compound at IC50): 6.84%
- Late Apoptosis (%) ([9]; compound at IC50): 6.01%
- Necrosis (%) ([9]; compound at IC50): 0.48%
- Early Apoptosis (%) ([9]; compound at IC50/2): 5.89%
- Late Apoptosis (%) ([9]; compound at IC50/2): 5.78%
- Necrosis (%) ([9]; compound at IC50/2): 0.36%
- percentage of A549 cells undergoing apoptosis (early and late) ([9]; compound at IC50/2): 11.67%
- percentage of A549 cells undergoing apoptosis (early and late) ([9]; compound at IC50): 12.85%

SMILES: N#Cc1ccc(C(=O)C=Cc2c[nH]c3ccc(Br)cc23)cc1 [3-(5-bromo-1H-indol-3-yl)-1-(4-cyanophenyl)prop-2-en-1-one]
- COX-1 IC50 [10]: 8.10 µg/mL
- COX-2 IC50 [11]: 9.50 µg/mL

SMILES: N#Cc1ccc(Oc2ccc(C=NNC(=S)Nc3ccc(S(=O)(=O)N4CCCCC4)cc3)cc2)cc1 [4-[4-(piperidin-1-ylsulfonyl)phenyl]-1-[4-(4-cyanophenoxy)benzylidene]thiosemicarbazide]
- IC50 [10]: 1.89 µM

SMILES: COc1ccc2[nH]cc(C=CC(=O)c3ccc(S(C)(=O)=O)cc3)c2c1 [3-(5-methoxy-1H-indol-3-yl)-1-(4-(methylsulfonyl)phenyl)prop-2-en-1-one]
- COX-1 IC50 [10]: 8.60 µg/mL

SMILES: O=[N+]([O-])c1ccc(Oc2ccc(C=NNC(=S)Nc3ccc(S(=O)(=O)N4CCCCC4)cc3)cc2)cc1 [4-[4-(piperidin-1-ylsulfonyl)phenyl]-1-[4-(4-nitrophenoxy)benzylidene]thiosemicarbazide]
- IC50 [10]: 13.4 µM
- IC50 [11]: 12.6 µM

SMILES: N.N.[Cl][Pt][Cl] [Cisplatin, reference compound]
- IC50 [7]: 22.7 ± 4.04 µM
- IC50 [8]: 9.3 ± 2.55 µM
- Early Apoptosis (%) ([9]; compound at IC50): 2.43%
- Late Apoptosis (%) ([9]; compound at IC50): 2.03%
- Necrosis (%) ([9]; compound at IC50): 2.34%
- Early Apoptosis (%) ([9]; compound at IC50/2): 3.69%
- Late Apoptosis (%) ([9]; compound at IC50/2): 2.88%
- Necrosis (%) ([9]; compound at IC50/2): 0.72%
- percentage of A549 cells undergoing apoptosis (early and late) ([9]; compound at IC50/2): 6.57%
- percentage of A549 cells undergoing apoptosis (early and late) ([9]; compound at IC50): 4.46%

Source: paper PMC9916685, “Discovery of Small Molecule COX-1 and Akt Inhibitors as Anti-NSCLC Agents Endowed with Anti-Inflammatory Action” (International Journal of Molecular Sciences, 2023)
